Values after ≈ are worked out from the molar mass of the structure shown. Read-outs that look alike come from different tables or passages of the source. Numbered stars: 1 amine (or outer) side, 2 acyl side, 3 side chain; on linkers, the order of the positions; unused ones are H or OH. Square brackets hold non-standard residues; d marks the D form. Peptide text beside a SMILES is read from it. ξ: configuration not given here. X24 = CN([C@@H](Cc1cccc(-c2ccnc(N3CCOCC3)c2)c1)C(=O)[*:2])[*:1]; X12 = CN(C)c1cc(-c2cccc(C[C@@H](C(=O)[*:2])N(C)[*:1])c2)ccn1; X14 = CN([C@@H](Cc1cccc(-c2ccc3ncccc3c2)c1)C(=O)[*:2])[*:1]; Hmp(2R,3S) = CC[C@H](C)[C@@H](O)C(=O)O; NMeVal(β-OH) = CN[C@H](C(=O)O)C(C)(C)O; X6 = CCC(C)[C@@H](O[*:1])C(=O)[*:2]; Ile(3ξ) = CCC(C)[C@H](N)C(=O)O; NMeV = CN[C@H](C(=O)O)C(C)C

In general, MIC refers to the lowest concentration found to suppress growth.

Assay [1] deals with C. albicans MMX 2000 ATCC 10231. The assay is described as follows: MIC assay (CLSI microdilution). Particulars: Candida albicans, ATCC10231, RPMI plus 0.002% Tween-80; read-out: MIC. The assay is classed as cell-based. (In general: Dilution methods test growth across graded concentrations, often in twofold steps.)
Assay [2] deals with C. neoformans MMX 0634 ATCC 90112. The assay is described as follows: MIC assay (CLSI microdilution). In kind it is cell-based. As to conditions: Cryptococcus neoformans, ATCC90112, RPMI plus 0.002% Tween-80; read-out: MIC.
The test system of assay [3] is C. parapsilosis MMX 2323 ATCC 22019. Briefly: MIC assay (CLSI microdilution). Particulars: read-out: MIC. In kind it is cell-based, Candida parapsilosis. The gist of the method:
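Broth microdilution MIC testing of Candida parapsilosis ATCC 22019 followed CLSI methods in RPMI-1640, with or without 0.002% Tween-80. Yeast grown 48 hours at 35° C on Sabouraud dextrose agar was suspended to a 0.5 McFarland standard and diluted 1:100 to roughly 0.5-2.5×10^3 CFU/mL. The MIC was the lowest concentration preventing visible growth.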

In assay [4] the test system is A. flavus MMX 5948. The assay is described as follows: MIC/MEC assay (CLSI microdilution). Particulars: Aspergillus flavus, MMX5948, 48 h; for minimal effective concentration: RPMI plus 0.002% Tween-80; for MIC: RPMI plus 0.002% Tween-80, read-out: MIC. In kind it is cell-based. The gist of the method: (§1)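 CLSI broth microdilution in RPMI-1640 with 0.002% Tween-80; MMX 5280 was also tested without Tween-80. AbA compounds were two-fold serially diluted in 95% ethanol. Aspergillus spore inoculum was approx. 0.2-2.5×10^4 CFU/mL final.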

For assay [5], the system named is A. fumigatus MMX 5944. The assay is described as follows: MIC/MEC assay (CLSI microdilution). The assay is classed as cell-based. Particulars: Aspergillus fumigatus, MMX5944, 48 h; for minimal effective concentration: RPMI plus 0.002% Tween-80; for MIC: RPMI plus 0.002% Tween-80, read-out: MIC. The gist of the method:
as §1

Assay [6] deals with A. fumigatus MMX 6781 ATCC MYA-4609. The assay is described as follows: MIC/MEC assay (CLSI microdilution). The assay is classed as cell-based. As to conditions: Aspergillus fumigatus; for MIC: 48 h, RPMI plus 0.002% Tween-80, read-out: MIC; for minimal effective concentration: RPMI plus 0.002% Tween-80, 48 hr. In outline: as §1
Assay [7] has as its system A. fumigatus MMX 6782 ATCC 13073. Briefly: MIC/MEC assay (CLSI microdilution). Particulars: Aspergillus fumigatus, ATCC13073, 48 h; for MIC: RPMI plus 0.002% Tween-80, read-out: MIC; for minimal effective concentration: RPMI plus 0.002% Tween-80, read-out: MEC. The assay is classed as cell-based. The gist of the method:
as §1

Assay [8] deals with A. fumigatus from Aureogen. Briefly: MIC/MEC assay (CLSI microdilution). The assay is classed as cell-based. As to conditions: Aspergillus fumigatus, 48 h; for minimal effective concentration: RPMI plus 0.002% Tween-80; for MIC: RPMI plus 0.002% Tween-80, read-out: MIC. The gist of the method: as §1
For assay [9], the system named is A. niger MMX 0624 ATCC 16888. The assay is described as follows: MIC/MEC assay (CLSI microdilution). In kind it is cell-based. As to conditions: Aspergillus niger, ATCC16888, 48 h; for minimal effective concentration: RPMI plus 0.002% Tween-80, read-out: MEC; for MIC: RPMI plus 0.002% Tween-80, read-out: MIC. The gist of the method: as §1
The subject of assay [10] is A. fumigatus MMX 5280 ATCC MYA-3626. The assay is described as follows: MIC/MEC assay (CLSI microdilution). In kind it is cell-based, Aspergillus fumigatus. As to conditions: Aspergillus fumigatus, 48 h. The gist of the method: as §1
Setting [11] is: ATCC22019, RPMI plus 0.002% Tween-80.
[12] abbreviates: RPMI plus 0.002% Tween-80, read-out: MEC.
Where [13] appears, read: RPMI plus 0.002% Tween-80, read-out: MIC.
[14] abbreviates: Without Tween-80, read-out: MEC.
Where [15] appears, read: Without Tween-80, read-out: MIC.

In the case of `CCC(C)[C@@H]1NC(=O)[C@@H]2CCCN2C(=O)[C@H](Cc2cccc(-c3ccc4ncccc4c3)c2)N(C)C(=O)[C@H](Cc2ccccc2)NC(=O)[C@H](C(C)C)N(C)C(=O)[C@@H](C(C)CC)OC(=O)[C@H](C(C)(C)O)N(C)C(=O)[C@H](CC(C)C)NC(=O)[C@H](C(C)C)N(C)C1=O` (stereo partly drawn) [Compound 18] (cyclo(F[X14]P[Ile(3ξ)][NMeV]L[NMeVal(β-OH)][X6][NMeV])), the MIC in assay [1] was 0.03 µg/mL; in [2] it was 0.25 µg/mL; in assay [3] (setting [11]) it was 0.12 µg/mL; in assay [3] (ATCC22019, Without Tween-80), 1 µg/mL (≈ 0.814 µM); in [4] it was 0.5 µg/mL; in assay [5] it was more than 64 µg/mL. Moreover, the MIC is more than 64 µg/mL in assay [6]; more than 64 µg/mL in assay [7]; more than 64 µg/mL in assay [8]; 0.25 µg/mL in assay [9]; more than 64 µg/mL in assay [10] (setting [13]); more than 64 µg/mL in [10] (setting [15]). Further, the minimal effective concentration in assay [4] was 0.25 µg/mL; in assay [5], more than 64 µg/mL; in [6], more than 64 µg/mL; in assay [8], more than 64 µg/mL; in assay [9], 0.06 µg/mL; in assay [10] (setting [12]), more than 64 µg/mL. Besides, the minimal effective concentration in assay [10] (setting [14]) is more than 64 µg/mL.

Turning to `CC[C@H](C)[C@@H]1NC(=O)[C@@H]2CCCN2C(=O)[C@H](Cc2cccc(-c3ccnc(N4CCOCC4)c3)c2)N(C)C(=O)[C@H](Cc2ccccc2)NC(=O)[C@H](C(C)C)N(C)C(=O)[C@@H]([C@@H](C)CC)OC(=O)[C@H](C(C)(C)O)N(C)C(=O)[C@H](CC(C)C)NC(=O)[C@H](C(C)C)N(C)C1=O` [Compound 21] (cyclo(F[X24]PI[NMeV]L[NMeVal(β-OH)][Hmp(2R,3S)][NMeV])), the MIC in assay [1] was 0.015 µg/mL; in assay [2], 0.25 µg/mL; in assay [3] (setting [11]), 0.06 µg/mL; in assay [3] (ATCC22019, Without Tween-80), 1 µg/mL (≈ 0.791 µM); in [4], more than 64 µg/mL; in assay [5], more than 64 µg/mL. The MIC is more than 64 µg/mL in assay [6]; more than 64 µg/mL in assay [7]; more than 64 µg/mL in assay [8]; 0.25 µg/mL in assay [9]; more than 64 µg/mL in assay [10] (setting [13]); more than 64 µg/mL in [10] (setting [15]). The minimal effective concentration in [4] is 0.25 µg/mL; in assay [5], more than 64 µg/mL; in assay [6], more than 64 µg/mL; in assay [7], more than 64 µg/mL; in [8], more than 64 µg/mL; in assay [9], 0.06 µg/mL. Besides, the minimal effective concentration in [10] (setting [12]) and in [10] (setting [14]) was more than 64 µg/mL in each case.

As for `CC[C@H](C)[C@@H]1NC(=O)[C@@H]2CCCN2C(=O)[C@H](Cc2cccc(-c3ccnc(N(C)C)c3)c2)N(C)C(=O)[C@H](Cc2ccccc2)NC(=O)[C@H](C(C)C)N(C)C(=O)[C@@H]([C@@H](C)CC)OC(=O)[C@H](C(C)(C)O)N(C)C(=O)[C@H](CC(C)C)NC(=O)[C@H](C(C)C)N(C)C1=O` [Compound 22] (cyclo(F[X12]PI[NMeV]L[NMeVal(β-OH)][Hmp(2R,3S)][NMeV])), the MIC in [1] is 0.03 µg/mL; in [2], 0.25 µg/mL; in [3] (setting [11]), 0.06 µg/mL; in assay [3] (ATCC22019, Without Tween-80) it was 1 µg/mL (≈ 0.819 µM); in assay [4], more than 64 µg/mL; in assay [5], more than 64 µg/mL. Besides, the MIC in [6] is more than 64 µg/mL; in [7], more than 64 µg/mL; in [8] it was more than 64 µg/mL; in assay [9], 0.5 µg/mL; in assay [10] (setting [13]), more than 64 µg/mL; in [10] (setting [15]) it was more than 64 µg/mL. Besides, the minimal effective concentration was more than 64 µg/mL in assay [4]; more than 64 µg/mL in [5]; more than 64 µg/mL in [6]; more than 64 µg/mL in [7]; more than 64 µg/mL in assay [8]; 0.25 µg/mL in [9]. For the same compound, the minimal effective concentration in assay [10] (setting [12]) and in assay [10] (setting [14]) was more than 64 µg/mL in each case.

Source of the values: patent publication US11066447B2, “Aureobasidium derivatives and methods of synthesis” (AureoGen Biosciences, Inc., priority 2016, dated 2021).
